This passage reports IC50 results from publication PMC9395968, “Pristimerin, a triterpene that inhibits monoacylglycerol lipase activity, prevents the development of paclitaxel-induced allodynia in mice” (Frontiers in Pharmacology, 2022).

The target in assay [1] is T1, human recombinant monoacylglycerol lipase (MAGL) (Homo sapiens, UniProt Q99685).
T1 construct: gene MGLL
T1 sequence (Q99685 1-303): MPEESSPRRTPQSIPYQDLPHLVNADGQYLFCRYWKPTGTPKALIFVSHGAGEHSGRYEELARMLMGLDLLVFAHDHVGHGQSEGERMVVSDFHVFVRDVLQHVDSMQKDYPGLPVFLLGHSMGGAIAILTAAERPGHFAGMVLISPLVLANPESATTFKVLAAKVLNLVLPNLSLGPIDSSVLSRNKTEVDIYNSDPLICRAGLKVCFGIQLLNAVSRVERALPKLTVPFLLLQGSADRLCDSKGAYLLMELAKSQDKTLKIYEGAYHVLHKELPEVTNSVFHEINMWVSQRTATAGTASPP
The experiment in a line: colorimetric MAGL inhibitor screening kit (4-nitrophenyl acetate hydrolysis, […] nm). It counts as biochemical.

Assay [2] concerns the target T2, mouse monoacylglycerol lipase (MAGL) (Mus musculus, UniProt O35678).
T2 construct: gene Mgll
T2 sequence (O35678 1-303): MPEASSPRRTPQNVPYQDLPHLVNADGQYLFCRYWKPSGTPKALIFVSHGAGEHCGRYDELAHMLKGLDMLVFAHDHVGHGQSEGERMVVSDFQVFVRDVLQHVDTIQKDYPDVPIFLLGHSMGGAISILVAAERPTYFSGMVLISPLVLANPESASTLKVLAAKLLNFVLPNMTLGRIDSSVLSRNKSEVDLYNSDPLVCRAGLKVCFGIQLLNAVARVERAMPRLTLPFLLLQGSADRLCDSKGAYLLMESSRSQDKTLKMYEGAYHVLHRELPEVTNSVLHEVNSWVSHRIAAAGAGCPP
The experiment in a line: fluorometric MAGL activity assay in paw skin supernatant (brain IC50 […]). In kind it is biochemical.

For the molecule `COC(=O)[C@]1(C)CC[C@]2(C)CC[C@]3(C)C4=CC=C5C(=CC(=O)C(O)=C5C)[C@]4(C)CC[C@@]3(C)[C@@H]2C1` [pristimerin], the IC50 (as a rule, the point on the concentration scale where inhibition reaches its midpoint) in assay [1] was found to be 130 nM; in assay [2] it was 596 nM.
